Tests used:
[1] = Half life in human; type: ADME, organism-based; conditions: in vivo
[2] = Half life in human Caco2 cell homogenates at 200 uM by LC-MS analysis; type: ADME, cell-based; conditions: Caco-2 cell homogenates
[3] = tested on: Caco-2; assay: Prodrug activation in human Caco2 cell homogenates assessed as LHRH release after 2 hrs; type: cell-based; conditions: caco-2, 2 h
[4] = Apparent permeability across human Caco2 cells at 200 uM up to 120 mins by LC-MS analysis; type: ADME, cell-based; conditions: Caco-2
[5] = Half life in human plasma; type: ADME, cell-free

Row | SMILES | half-life [1] [min] | half-life at 200 µM [2] [min] | Drug metabolism [3] | Papp at 2 h, 200 µM [4] [×10⁻⁶ cm/s] | half-life [5] [min]
1 | CC(C)C[C@H](NC(=O)[C@@H](Cc1c[nH]c2ccccc12)NC(=O)[C@H](Cc1ccc(O)cc1)NC(=O)[C@H](CO)NC(=O)[C@H](Cc1c[nH]c2ccccc12)NC(=O)[C@H](Cc1cnc[nH]1)NC(=O)[C@H](CCC(N)=O)NC(=O)CCC(=O)N[C@@H]1O[C@H](CO)[C@@H](O[C@@H]2O[C@H](CO)[C@H](O)[C@H](O)[C@H]2O)[C@H](O)[C@H]1O)C(=O)N[C@@H](CCCNC(=N)N)C(=O)N1CCC[C@H]1C(=O)NCC(N)=O | 3 | 133 | – | – | –
2 | CC(C)C[C@H](NC(=O)CNC(=O)[C@H](Cc1ccc(O)cc1)NC(=O)[C@H](CO)NC(=O)[C@H](Cc1c[nH]c2ccccc12)NC(=O)[C@H](Cc1cnc[nH]1)NC(=O)[C@H](CCC(N)=O)NC(=O)CCC(=O)N[C@@H]1O[C@H](CO)[C@@H](O)[C@H](O)[C@H]1O)C(=O)N[C@@H](CCCNC(=N)N)C(=O)N1CCC[C@H]1C(=O)NCC(N)=O | – | 73.5 | Not Active | 2.31 | –
3 | CC(C)C[C@H](NC(=O)CNC(=O)[C@H](Cc1ccc(O)cc1)NC(=O)[C@H](CO)NC(=O)[C@H](Cc1c[nH]c2ccccc12)NC(=O)[C@H](Cc1cnc[nH]1)NC(=O)[C@H](CCC(N)=O)NC(=O)CCC(=O)N[C@@H]1O[C@H](CO)[C@H](O)[C@H](O)[C@H]1O)C(=O)N[C@@H](CCCNC(=N)N)C(=O)N1CCC[C@H]1C(=O)NCC(N)=O | – | 92.2 | Not Active | 1.62 | –
4 | CC(C)C[C@H](NC(=O)CNC(=O)[C@H](Cc1ccc(O)cc1)NC(=O)[C@H](CO)NC(=O)[C@H](Cc1c[nH]c2ccccc12)NC(=O)[C@H](Cc1cnc[nH]1)NC(=O)[C@H](CCC(N)=O)NC(=O)CCC(=O)N[C@@H]1O[C@H](CO)[C@@H](O[C@@H]2O[C@H](CO)[C@H](O)[C@H](O)[C@H]2O)[C@H](O)[C@H]1O)C(=O)N[C@@H](CCCNC(=N)N)C(=O)N1CCC[C@H]1C(=O)NCC(N)=O | – | 133 | Not Active | 0.76 | –
5 | CC(C)C[C@H](NC(=O)CNC(=O)[C@H](Cc1ccc(O)cc1)NC(=O)[C@H](CO)NC(=O)[C@H](Cc1c[nH]c2ccccc12)NC(=O)[C@H](Cc1cnc[nH]1)NC(=O)[C@@H](N)CCC(=O)O)C(=O)N[C@@H](CCCNC(=N)N)C(=O)N1CCC[C@H]1C(=O)NCC(=O)N[C@@H]1O[C@H](C(N)=O)[C@@H](O)[C@H](O)[C@H]1O | – | 28.4 | – | – | –
6 | CC(C)C[C@H](NC(=O)CNC(=O)[C@H](Cc1ccc(O)cc1)NC(=O)[C@H](CO)NC(=O)[C@H](Cc1c[nH]c2ccccc12)NC(=O)[C@H](Cc1cnc[nH]1)NC(=O)[C@H](CCC(=O)O)NC(=O)CCC(=O)N[C@@H]1O[C@H](CO)[C@@H](O)[C@H](O)[C@H]1O)C(=O)N[C@@H](CCCNC(=N)N)C(=O)N1CCC[C@H]1C(=O)NCC(N)=O | – | 56.7 | Not Active | 2.65 | –
7 | CC(C)C[C@H](NC(=O)CNC(=O)[C@H](Cc1ccc(O)cc1)NC(=O)[C@H](CO)NC(=O)[C@H](Cc1c[nH]c2ccccc12)NC(=O)[C@H](Cc1cnc[nH]1)NC(=O)[C@H](CCC(=O)O)NC(=O)CCC(=O)N[C@@H]1O[C@H](CO)[C@H](O)[C@H](O)[C@H]1O)C(=O)N[C@@H](CCCNC(=N)N)C(=O)N1CCC[C@H]1C(=O)NCC(N)=O | – | 51 | Not Active | 1.08 | –
8 | CC(C)C[C@H](NC(=O)CNC(=O)[C@H](Cc1ccc(O)cc1)NC(=O)[C@H](CO)NC(=O)[C@H](Cc1c[nH]c2ccccc12)NC(=O)[C@H](Cc1cnc[nH]1)NC(=O)[C@H](CCC(=O)O)NC(=O)CCC(=O)N[C@@H]1O[C@H](CO)[C@@H](O[C@@H]2O[C@H](CO)[C@H](O)[C@H](O)[C@H]2O)[C@H](O)[C@H]1O)C(=O)N[C@@H](CCCNC(=N)N)C(=O)N1CCC[C@H]1C(=O)NCC(N)=O | – | 77 | Not Active | 2.87 | –
9 | CC(C)C[C@H](NC(=O)CNC(=O)[C@H](Cc1ccc(O)cc1)NC(=O)[C@H](CO)NC(=O)[C@H](Cc1c[nH]c2ccccc12)NC(=O)[C@H](Cc1cnc[nH]1)NC(=O)[C@@H](N)CCC(=O)O)C(=O)N[C@@H](CCCNC(=N)N)C(=O)N1CCC[C@H]1C(=O)NCC(N)=O | – | 30.4 | – | – | –
10 | CC(C)C[C@H](NC(=O)CNC(=O)[C@H](Cc1ccc(O)cc1)NC(=O)[C@H](CO)NC(=O)[C@H](Cc1c[nH]c2ccccc12)NC(=O)[C@H](Cc1cnc[nH]1)NC(=O)[C@@H]1CCC(=O)N1)C(=O)N[C@@H](CCCNC(=N)N)C(=O)N1CCC[C@H]1C(=O)NCC(N)=O [GONADORELIN] | – | 32.6 | – | 0.398 | 3
11 | CC(C)C[C@H](NC(=O)[C@@H](Cc1c[nH]c2ccccc12)NC(=O)[C@H](Cc1ccc(O)cc1)NC(=O)[C@H](CO)NC(=O)[C@H](Cc1c[nH]c2ccccc12)NC(=O)[C@H](Cc1c[nH]cn1)NC(=O)[C@@H]1CCC(=O)N1)C(=O)N[C@@H](CCCNC(=N)N)C(=O)N1CCC[C@H]1C(=O)NCC(N)=O [TRIPTORELIN] | – | 186 | – | – | –
